Tests used:
db/db mice [1] = experiment: Fasting serum insulin levels (ELISA) in db/db mice; assay type: in vivo, mouse; details: FTY720-treated vs untreated, after overnight fasting
From the text: FIG. 4. Fasting serum insulin levels of the db/db mice with (+FTY720) or without FTY720 (−FTY720) treatment (*p<0.01).
After overnight fasting, blood samples ([…]) were collected in a heparinized microhematocrit tube for the determination of insulin concentration using a Ultra Sensitive Mouse Insulin ELISA Kit (Crystal Chem Inc., Downers Grove, Ill.) (30).

db/db mice [2] = experiment: Intraperitoneal glucose tolerance test; assay type: in vivo, mouse; details: db/db mice fasted 16 h, i.p. 10% glucose 1 mg/g; treated vs untreated
Description: FIG. 5A. Intraperitoneal glucose tolerance test (GTT). The mice of both groups were fasted for 16 hours and intraperitoneally injected with 10% glucose (1 mg/g body weight). Glucose levels were then measured after 0, 30, 60, 90, 120 min by a Glucometer Elite (Bayer Corp., Elkhart, Ind.). Open circle (∘), FTY720-untreated group; solid circle (●), FTY720-treated group. *p<0.01.
For the glucose tolerance test, the mice were fasted for 16 h and intraperitoneally injected with 10% glucose (1 mg/g of body weight). Glucose levels were then measured after 0, 30, 60, 90, and 120 min by a Glucometer Elite (Bayer Corp., Elkhart, Ind.) (29). For the insulin tolerance test, the mice were fasted for 6 h and injected intraperitoneally with human regular insulin (0.55 units/kg) (Sigma). Tail blood samples were collected at 0, 30, 40, 60, 90, and 120 min for glucose measurement (30, 31).

db/db mice [3] = experiment: Insulin tolerance test; assay type: in vivo, mouse
Description: FIG. 5B. Insulin tolerance test (ITT). db/db mice with or without FTY720 treatment were fasted for 6 hours, and injected intraperitoneally with human regular insulin (0.55 U/kg) (Sigma), […] Open circle (∘), FTY720-untreated group; solid circle (●), FTY720-treated group. *p<0.05.
For the glucose tolerance test, the mice were fasted for 16 h and intraperitoneally injected with 10% glucose (1 mg/g of body weight). Glucose levels were then measured after 0, 30, 60, 90, and 120 min by a Glucometer Elite (Bayer Corp., Elkhart, Ind.) (29). For the insulin tolerance test, the mice were fasted for 6 h and injected intraperitoneally with human regular insulin (0.55 units/kg) (Sigma). […]

pancreatic islets = experiment: Islet morphology (HE and insulin immunostaining) and islet area quantification in pancreas; assay type: in vivo, mouse
From the text: FIG. 7. Hematoxylin and eosin (HE) staining of pancreas from the FTY720-untreated and the treated mice. After 6 and 9 weeks of treatment, pancreases were removed from the db/db mice and embedded in paraffin. Paraffin sections (10 μm thick) were stained with HE and analyzed with a microscope (Scale bar, 50 μm).
FIG. 8. Insulin immunostaining (green fluorescence) of the pancreatic islets. After 6 and 9 weeks treatment of FTY720, pancreases were removed from the db/db mice and embedded in paraffin. Paraffin sections (10 μm thick) were immunostained fluorescently for insulin (green color) (Scale bar 50 μm).
FIG. 9. Stereological quantification of the islet areas in the FTY720-untreated and the FTY720-treated db/db mice. […]
To assess islet area in pancreas after 6 weeks of treatment with FTY720, six consecutive paraffin sections (10 μm) from a pancreas (10 pancreases for the control and 9 pancreases for the FTY720-treated group) were used. All islet images on a whole section were taken by a Axioplan 2 microscope at X10 magnification, each islet area was measured by the Java-based image-processing program ImageJ (National Institutes of Health, Bethesda, Md.), and the sum of all islet areas from a section was considered to be the islet area per pancreas.

S1P1 = experiment: S1P receptor expression in islets from db/db mice: S1P1; assay type: in vivo, mouse; details: after FTY720 treatment of db/db mice
From the text: (§1) FIG. 15. Expression of 4 FTY720-bound S1P receptors in the islets isolated from the db/db mice.
(§2) FTY720 is phosphorylated in vivo to form FTY720-P that binds S1P1, S1P3, S1P4, and S1P5 but not S1P2 (25). We determined the expression of these receptors in the islets isolated from the untreated and FTY720-treated db/db mice.

S1P4 = experiment: S1P receptor expression in islets from db/db mice: S1P4; assay type: in vivo, mouse; details: after FTY720 treatment of db/db mice
From the text: as §1, §2

[4] = Observation of cancer formation during the study; assay type: in vivo, mouse; details: during the course of this invention, 10 mg/kg
From the text: There are several advantages of the present invention. First, FTY720 is a FDA approved medicine for the treatment of patients with relapsing multiple sclerosis (MS) and its safety profile has been well studied during the clinical trial for treatment of relapsing MS, including more than 4,500 patient years of experience, with some patients in their seventh year of treatment. Second, FTY720 is an orally taken therapy and easy to take by patients, compared with insulin and GLP-1 analog therapies that have to be injected into body either by healthcare professionals or by patients themselves. […] Finally, although FTY720 promotes beta-cell regeneration, the risk of tumorigenesis is low.

[5] = patients with relapsing multiple sclerosis; cited from earlier work

Structure (SMILES): CCCCCCCCc1ccc(CCC(N)(CO)CO)cc1 [FTY720, 2-amino-2-[2-(4-octylphenyl)ethyl]propane-1,3-diol]
- fasting serum insulin levels (db/db mice [1]): significantly elevated
- glucose tolerance (db/db mice [2]): significantly improved
- glucose levels in treated vs untreated groups after insulin administration (db/db mice [3]; after 70 min in insulin tolerance test): similar
- insulin sensitivity (db/db mice [3]; db/db mice fasted 6 h, i.p. human regular insulin 0.55 U/kg): not affected
- pancreatic islet size (stereological quantification of islet areas) (pancreatic islets; db/db mice after 6 weeks of treatment, vs untreated group): significantly larger
- islet morphology (pancreatic islets; db/db mice, H&E and insulin immunostaining, after 6 and 9 weeks of treatment): normal islet morphology
- S1P1 expression in islets (S1P1): significantly elevated
- S1P4 expression in islets (S1P4): significantly elevated
- cancer formation [4]: no cancer formation was observed
- cancer formation in phase III clinical trials [5]: without reported cancer formation

Reference: patent US8653026B2, “Treatment of type 2 diabetes with FTY720” (Diapin Therapeutics LLC, priority 2011, dated 2014)
